From US11208385B2, “N-substituted imidazole carboxylate compound, preparation method and use” (priority 2017, dated 2021)
Read-outs that look alike come from different tables or passages of the source.

Columns and labels:
[1] = In vitro degradation experiment in rat liver homogenate (HPLC); assay type: in vitro ADME; conditions: for Residual rate at 5 min (%) / Residual rate at 10 min (%) / Residual rate at 20 min (%): rat liver homogenate, 37° C., 50 μg/mL
Protocol: In Vitro Degradation Experiment of Compounds.
Chromatographic condition: mobile phase is methanol: H2O=65:35, and the water phase contains 0.06% ammonium acetate; the flow rate is 1 mL/min; the column temperature is 25° C.
Apparatus: Agilent 1100 Series. Chromatographic column: Aglent Eclipse Plus C18 column, 5 μm 4.6*[…].
The linear range is 1-50 μg/mL.
After fasting for 24 h, male SD rats were treated to collect liver, and the water on the surface of liver was removed using the filter paper, then liver was weighed. […] Then, the homogenate was centrifugated at 10000 g for 20 min at the temperature of 4° C. The supernatant solution was collected, and 14 samples (2 mL) of liver homogenate were taken out and warmed to 37° C. in water bath. Each compound (content 10 mg/mL, 10 μl) was added, respectively, to make a concentration of 50 μg/mL in liver homogenate.
[…] After centrifugation, the supernatant solution was taken out and injected. The concentration of each compound at each time point was detected, that was divided by the initial concentration of each compound, to obtain the degradation ratio of each compound.

[2] = system: corticosterone; assay: Serum corticosterone after dexamethasone suppression and ACTH stimulation in rats (ELISA); conditions: ACTH stimulation
Protocol: Male rats (250˜300 g) were chosen as test animals, and the content of corticosterone in serum of rats was measured using ELISA kit and ELISA reader. 65 SD rats were randomly divided into 13 groups, five rats for each group. […] 30 min After administration of ACTH, the concentrations of two cortical hormones in animal body were determined.

[3] = system: SD rats; conditions: for Incidence rate (%) of muscle tremor: single iv dose of 2ED50, 10 rats per group; for Time of keeping anaesthesia / Time of complete recovery: single iv dose of 2ED50; for Time of keeping anaesthesia: from abolition to recovery of righting reflex; for Time of complete recovery: from recovery of righting reflex to free walk
Protocol: 150 male SD rats weighing 250˜300 g were randomly divided into 15 groups, 10 rats for one group. […] Drugs were injected to rats via caudal vein, and the injection time was 15 seconds. The abolition of righting reflex for 30 s or above was used as the indicator producing anaesthetic effect.

[4] = system: SD rats; conditions: for Time of complete recovery / Wake time after drug withdrawal: after 1 h continual infusion; for Time of complete recovery: from recovery of righting reflex to free walk; for Wake time after drug withdrawal: recovery time of righting reflex after discontinuance; for Incidence rate (%) of muscle tremor: continual infusion for 1 h
Protocol: 30 male SD rats weighing 250˜300 g were randomly divided into 6 groups, 5 rats for one group. […] Each drug was continually infused to rats via caudal vein, and made the righting reflex abolish, and the abolition of righting reflex was maintained for 1 hour. The wake time after drug withdrawal and the time of full recovery were recorded.

[5] = biological target: T1, 11-β hydroxylase (Homo sapiens, UniProt P15538); conditions: 11-β hydroxylase versus GABAA receptor; cited from earlier work
T1 sequence (P15538 25-503): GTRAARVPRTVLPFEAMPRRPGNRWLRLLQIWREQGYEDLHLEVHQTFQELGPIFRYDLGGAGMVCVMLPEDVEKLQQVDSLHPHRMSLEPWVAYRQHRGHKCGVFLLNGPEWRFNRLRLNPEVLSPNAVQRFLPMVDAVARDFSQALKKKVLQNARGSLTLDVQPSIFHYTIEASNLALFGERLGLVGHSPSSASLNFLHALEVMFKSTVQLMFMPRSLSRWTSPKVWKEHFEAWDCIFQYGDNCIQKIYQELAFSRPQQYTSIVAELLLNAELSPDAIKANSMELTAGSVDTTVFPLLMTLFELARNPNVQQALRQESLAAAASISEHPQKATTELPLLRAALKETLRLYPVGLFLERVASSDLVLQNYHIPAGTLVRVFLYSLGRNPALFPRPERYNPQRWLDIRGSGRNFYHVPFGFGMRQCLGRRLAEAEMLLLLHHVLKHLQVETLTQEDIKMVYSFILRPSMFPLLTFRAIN

[6] = in vivo, 3 mg/kg; cited from earlier work

| SMILES | Residual rate at 5 min (%) [1] [%] | Residual rate at 10 min (%) [1] [%] | Residual rate at 20 min (%) [1] [%] | Cortex function of test animals after drug withdrawal ([2]; 30 min after drug withdrawal) | Incidence rate (%) of muscle tremor [3] [%] | Time of keeping anaesthesia [3] [min] | Time of complete recovery [3] | Time of complete recovery [4] [min] | Wake time after drug withdrawal [4] [min] | Incidence rate (%) of muscle tremor [4] [%] | Decomposition under the action of liver homogenate of rats ([1]; comparative experiment) | Combining capacity with 11-β hydroxylase relative to GABAA receptor [5] [times] | Effect on self-synthesis of adrenal cortical hormones [2] | Onset of anaesthesia ([3]; equivalent dose of anesthesia) | Minimum effective concentration producing anaesthetic effect in plasma [6] [ng/mL] | Minimum effective concentration to inhibit the synthesis of cortical hormones [6] [ng/mL] | Time of maintaining the drug concentration of >8 ng/mL in plasma [6] [h] | Time of maintaining the drug concentration of >200 ng/mL in plasma [6] [min] |
| --- | --- | --- | --- | --- | --- | --- | --- | --- | --- | --- | --- | --- | --- | --- | --- | --- | --- | --- |
| COC(=O)CCOC(=O)c1cncn1[C@H](C)c1ccccc1 [MOC-ET, reference compound] | 0 | 0 | 0 | obviously recovered | – | – | – | – | – | – | – | – | – | – | – | – | – | – |
| C[C@H](c1ccccc1)n1cncc1C(=O)OCOC(=O)OC(C(F)(F)F)C(F)(F)F [Example 9] | 72.1 | 50.3 | 39.8 | – | 0 | 8.1 ± 2.3 | 7.2 ± 2.9 min | 55 ± 38 | 20 ± 14 | 0 | – | – | – | – | – | – | – | – |
| CC(C)COC(=O)OCOC(=O)c1cncn1[C@H](C)c1ccccc1 [Example 5] | 0 | 0 | 0 | – | 10 | 3 ± 1.1 | 3.3 ± 2.1 min | 3.9 ± 2.6 | 6.2 ± 1.2 | 10 | – | – | – | – | – | – | – | – |
| CC(C)OC(=O)OC(C)OC(=O)c1cncn1[C@H](C)c1ccccc1 (stereo partly drawn) [Example 8] | 2.1 | 0 | 0 | – | 10 | 2.3 ± 0.3 | 1.9 ± 1^ min | 1.8 ± 0.6 | 4.9 ± 2.7 | 10 | – | – | – | – | – | – | – | – |
| CCC(C)OC(=O)OCOC(=O)c1cncn1[C@H](C)c1ccccc1 (stereo partly drawn) [Example 6] | 4.7 | 0.9 | 0 | – | 0 | 2.4 ± 0.6 | 1.7 ± 0.4 min | 2.1 ± 1.5 | 3.1 ± 1.9 | 0 | – | – | – | – | – | – | – | – |
| CCOC(=O)c1cncn1[C@H](C)c1ccccc1 [Etomidate, reference compound] | 97.9 | 95.9 | 95.9 | – | 40 | 6.3 ± 2.8 | 7.2 ± 1.7 min | 85 ± 29 | 18 ± 10 | 60 | slowly decomposed | 100 | significantly suppress | immediately anesthetize the rats | 200 | 8 | 8 | 8 |
| COC(=O)OCOC(=O)c1cncn1[C@H](C)c1ccccc1 [Example 1] | 0 | 0 | 0 | – | 0 | 1.5 ± 0.6 | 1.4 ± 0.5 min | 4.1 ± 1.1 | 2.1 ± 1.1 | 0 | – | – | – | – | – | – | – | – |
| C[C@H](c1ccccc1)n1cncc1C(=O)OCOC(=O)OC(C)(C)C [Example 4] | 89.3 | 60.1 | 43.6 | – | 0 | 8.3 ± 1.4 | 6.1 ± 1.6 min | 90 ± 37 | 25 ± 24 | 20 | – | – | – | – | – | – | – | – |
